Experiment [1] relates to Herpes simplex virus 1. The experiment is described as follows: Inhibition of Herpes proliferation by measuring the cytopathogenic effect. In kind it is cell-based, Herpes simplex virus 1 in monkey kidney cells (Rita strain). The following applies: 50 PFU HSV-1, pH 6.8, microscopy after 6 days. The procedure:
The inhibition of the proliferation of Herpes by exo/exo-tricyclo[5.2.1.0^2.6]dec-9-yl-xanthogenate was determined by measuring the cytopathogenic effect. For this purpose, monkey kidneys cells (Rita strain) were seeded on Linbro plates. After 24 hours, 50 plaque-forming units of Herpes simplex virus 1 were added to each culture. After allowing for adsorption for one hour, fresh culture medium adjusted to pH 6.8 was added. Four cultures each were treated either with the pure exo/exo isomer or a mixture of isomers containing 83% of the exo/exo isomer using the following concentrations: 0, 5, 10, 15 or 20 μg/ml. The cultures were analyzed by microscopy after 6 days. Untreated cultures were completely lysed as a result of virus proliferation (cytopathogenic effect).

Experiment [2] deals with Herpes simplex virus 1. Briefly: Inhibition of Herpes proliferation by measuring viral proliferation (plaque assay of supernatants). In kind it is cell-based, Herpes simplex virus 1 in monkey kidney cells (Rita strain). As for the experimental part:
The inhibition of the proliferation of Herpes by exo/exotricyclo[5.2.1.0^2.6]dec-9-yl-xanthogenate was determined by measuring viral proliferation. For this purpose, monkey kidneys cells (Rita strain) were seeded on Linbro plates. After 24 hours, 100 plaque-forming units of Herpes simplex virus 1 were added to each culture. After allowing for adsorption for one hour, fresh culture medium adjusted to pH 6.8 was added. Four cultures each were treated either with the pure exo/exo isomer or a mixture of isomers containing 83% of the exo/exo isomer using the following concentrations: 0, 5, 10 or 15 μg/ml. The virus concentrations in the supernatants of the cultures were determined after four days by means of plaque assays. The curves were used to determine the concentration at which viral proliferation was inhibited by 50% (IC50). An IC50 of 0.6 μg/ml was found for the exo/exo isomer. […] This means that the pure exo/exo isomer effected a 50% reduction of viral proliferation at a more than 10-fold lower concentration as compared to the mixture of isomers.

With `S=C(S)OC1CC2CC1C1CCCC21` (single isomer, unassigned) [exo/exo isomer, exo/exo-tricyclo[5.2.1.0^2.6]dec-9-yl-xanthogenate], the “cytopathogenic effect in treated cultures” value in experiment [1] (5, 10, 15 or 20 μg/ml) is on record as “no evidence of a cytopathogenic effect”. Moreover, the “concentration at which proliferation of the virus was completely suppressed (no cytopathogenic effect)” value in experiment [1] (tested 5-20 μg/ml) was no more than 5 µg/mL. The “concentration at which viral proliferation was inhibited by 50% (IC50)” value in experiment [2] (100 PFU HSV-1, pH 6.8, virus in supernatant after four days, from dose-response curve) worked out at 0.6 µg/mL. Also, in experiment [2] (IC50 ratio versus mixture containing 83% exo/exo isomer), the “fold lower concentration for 50% reduction of viral proliferation as compared to the mixture of isomers” value is “more than 10 fold”. The “fold stronger antiviral effect than the mixture of isomers” value in experiment [2] (summary statement, versus mixture of 83% exo/exo and 17% other isomers) is 4-10 fold.

The values are drawn from patent US7915237B2, “Production of pure stereoisomers of tricyclo[5.2.1.02.6]-dec-9-yl-xanthogenate and medicaments therefrom” (Lumavita AG, priority 2001, dated 2011).
